Key:
[1] = biological target: T1, hClpP (Homo sapiens, UniProt Q16740); assay: activating ClpP hydrolysis of FITC-casein (fluorescence kinetic detection); format: biochemical; conditions: hClpP 1 μM, FITC-Casein 4 μM, 37° C.
T1 construct: made in house
How it was run: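 hClpP at 1 μM final preincubated with compounds (assay-buffer dilutions 200 μM–2 nM, before mixing) 30 min at 37 °C, then 4 μM final FITC-casein added. Fluorescence read kinetically at 37 °C every 1 min for 15 min, duplicate wells.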

[2] = tested on: MV4; 11 cells; assay: inhibiting the growth of MV4; 11 cells; format: cell-based; conditions: Homo sapiens
[3] = tested on: xenograft solid tumor models such as colon cancer, breast cancer, and brain tumors; conditions: Oncotarget 2016, 7, 74380-74392; cited from earlier work

T1 sequence (Q16740 57-277): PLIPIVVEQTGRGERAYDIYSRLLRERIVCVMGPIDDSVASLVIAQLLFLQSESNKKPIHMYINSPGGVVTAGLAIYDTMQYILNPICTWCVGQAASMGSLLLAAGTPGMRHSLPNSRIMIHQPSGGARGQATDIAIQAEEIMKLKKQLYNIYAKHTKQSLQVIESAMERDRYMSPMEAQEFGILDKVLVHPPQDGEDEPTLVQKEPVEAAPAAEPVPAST

SMILES	EC50 [1]	IC50 [2]	tumor regression in xenograft solid tumor models [3]
COc1ccc(Cn2c(=O)c3c(n4ccnc24)CCN(Cc2cccc(C#N)c2)C3)cc1 [Compound I-146, 7-(3-cyanobenzyl)-4-(4-methoxybenzyl)-6,7,8,9-tetrahydroimidazo[1,2-a]pyrido[3,4-e]pyrimidine-5(4H)-one]	< 1000 nM	< 1000 nM	
O=c1c2c(n3ccnc3n1Cc1ccc3c(c1)OCO3)CCN(Cc1cccc(Cl)c1)C2 [Compound I-147, 7-(3-chlorobenzyl)-4-([1,3]benzodioxol-5-ylmethyl)-6,7,8,9-tetrahydroimidazo[1,2-a]pyrido[3,4-e]pyrimidine-5(4H)-one]	1000 to 10000 nM	1000 to 10000 nM	
O=c1c2c(n3ccnc3n1Cc1ccc3c(c1)OCCO3)CCN(Cc1cccc(Cl)c1)C2 [Compound I-148, 7-(3-chlorobenzyl)-4-((2,3-dihydro[1,4]benzodioxin-6-yl)methyl)-6,7,8,9-tetrahydroimidazo[1,2-a]pyrido[3,4-e]pyrimidine-5(4H)-one]	1000 to 10000 nM	1000 to 10000 nM	
O=c1c2c(n3ncnc3n1Cc1ccc(C(F)(F)F)cc1)CCN(Cc1ccccc1)C2 [Compound I-149, 4-(4-trifluoromethylbenzyl)-7-benzyl-6,7,8,9-tetrahydropyrido[3,4-e][1,2,4]triazolo[1,5-a]pyrimidine-5(4H)-one]	1000 to 10000 nM	1000 to 10000 nM	
O=c1c2c(n3ncnc3n1Cc1ccc(C(F)(F)F)cc1)CCN(Cc1cccc(Cl)c1)C2 [Compound I-150, 4-(4-trifluoromethylbenzyl)-7-(3-chlorobenzyl)-6,7,8,9-tetrahydropyrido[3,4-e][1,2,4]triazolo[1,5-a]pyrimidine-5(4H)-one]	1000 to 10000 nM	1000 to 10000 nM	
N#Cc1cccc(CN2CCc3c(c(=O)n(Cc4ccc(C(F)(F)F)cc4)c4ncnn34)C2)c1 [Compound I-151, 4-(4-trifluoromethylbenzyl)-7-(3-cyanobenzyl)-6,7,8,9-tetrahydropyrido[3,4-e][1,2,4]triazolo[1,5-a]pyrimidine-5(4H)-one]	1000 to 10000 nM	1000 to 10000 nM	
O=c1c2c(n3ncnc3n1Cc1ccc(Cl)cc1)CCN(Cc1ccccc1)C2 [Compound I-152, 4-(4-chlorobenzyl)-7-benzyl-6,7,8,9-tetrahydropyrido[3,4-e][1,2,4]triazolo[1,5-a]pyrimidine-5(4H)-one]	1000 to 10000 nM	1000 to 10000 nM	
O=c1c2c(n3ncnc3n1Cc1ccc(Cl)cc1)CCN(Cc1cccc(F)c1)C2 [Compound I-153, 4-(4-chlorobenzyl)-7-(3-fluorobenzyl)-6,7,8,9-tetrahydropyrido[3,4-e][1,2,4]triazolo[1,5-a]pyrimidine-5(4H)-one]	1000 to 10000 nM	1000 to 10000 nM	
O=c1c2c(n3ncnc3n1Cc1ccc(Cl)cc1)CCN(Cc1cccc(Cl)c1)C2 [Compound I-154, 4-(4-chlorobenzyl)-7-(3-chlorobenzyl)-6,7,8,9-tetrahydropyrido[3,4-e][1,2,4]triazolo[1,5-a]pyrimidine-5(4H)-one]	1000 to 10000 nM	1000 to 10000 nM	
N#Cc1cccc(CN2CCc3c(c(=O)n(Cc4ccc(Cl)cc4)c4ncnn34)C2)c1 [Compound I-155, 4-(4-chlorobenzyl)-7-(3-cyanobenzyl)-6,7,8,9-tetrahydropyrido[3,4-e][1,2,4]triazolo[1,5-a]pyrimidine-5(4H)-one]	1000 to 10000 nM	1000 to 10000 nM	
O=c1c2c(n3nccc3n1Cc1ccccc1)CCN(Cc1cccc(Cl)c1)C2 [Compound I-156, 4-benzyl-7-(3-chlorobenzyl)-6,7,8,9-tetrahydropyrazolo[1,5-a]pyrido[3,4-e]pyrimidine-5(4H)-one]	1000 to 10000 nM	1000 to 10000 nM	
N#Cc1cccc(CN2CCc3c(c(=O)n(Cc4ccccc4)c4ccnn34)C2)c1 [Compound I-157, 4-benzyl-7-(3-cyanobenzyl)-6,7,8,9-tetrahydropyrazolo[1,5-a]pyrido[3,4-e]pyrimidine-5(4H)-one]	1000 to 10000 nM	1000 to 10000 nM	
Cc1cccc(CN2CCc3c(c(=O)n(Cc4ccccc4)c4ccnn34)C2)c1 [Compound I-158, 4-benzyl-7-(3-methylbenzyl)-6,7,8,9-tetrahydropyrazolo[1,5-a]pyrido[3,4-e]pyrimidine-5(4H)-one]	1000 to 10000 nM	1000 to 10000 nM	
O=c1c2c(n3nccc3n1Cc1ccc(C(F)(F)F)cc1)CCN(Cc1ccccc1)C2 [Compound I-159, 4-(4-trifluoromethylbenzyl)-7-benzyl-6,7,8,9-tetrahydropyrazolo[1,5-a]pyrido[3,4-e]pyrimidine-5(4H)-one]	1000 to 10000 nM	1000 to 10000 nM	
N#Cc1cccc(CN2CCc3c(c(=O)n(Cc4ccc(C(F)(F)F)cc4)c4ccnn34)C2)c1 [Compound I-160, 4-(4-trifluoromethylbenzyl)-7-(3-cyanobenzyl)-6,7,8,9-tetrahydropyrazolo[1,5-a]pyrido[3,4-e]pyrimidine-5(4H)-one]	1000 to 10000 nM	1000 to 10000 nM	
O=c1c2c(n3nccc3n1Cc1ccc(Cl)cc1)CCN(Cc1ccccc1)C2 [Compound I-161, 4-(4-chlorobenzyl)-7-benzyl-6,7,8,9-tetrahydropyrazolo[1,5-a]pyrido[3,4-e]pyrimidine-5(4H)-one]	1000 to 10000 nM	1000 to 10000 nM	
O=c1c2c(n3nccc3n1Cc1ccc(Cl)cc1)CCN(Cc1cccc(Cl)c1)C2 [Compound I-162, 4-(4-chlorobenzyl)-7-(3-chlorobenzyl)-6,7,8,9-tetrahydropyrazolo[1,5-a]pyrido[3,4-e]pyrimidine-5(4H)-one]	1000 to 10000 nM	1000 to 10000 nM	
N#Cc1cccc(CN2CCc3c(c(=O)n(Cc4ccc(Cl)cc4)c4ccnn34)C2)c1 [Compound I-163, 4-(4-chlorobenzyl)-7-(3-cyanobenzyl)-6,7,8,9-tetrahydropyrazolo[1,5-a]pyrido[3,4-e]pyrimidine-5(4H)-one]	1000 to 10000 nM	1000 to 10000 nM	
O=c1c2c(n3cncc3n1Cc1ccc(C(F)(F)F)cc1)CCN(Cc1ccccc1)C2 [Compound I-164, 7-benzyl-4-(4-trifluoromethylbenzyl)-6,7,8,9-tetrahydroimidazo[1,5-a]pyrido[3,4-e]pyrimidine-5(4H)-one]	1000 to 10000 nM	1000 to 10000 nM	
N#Cc1cccc(CN2CCc3c(c(=O)n(Cc4ccc(C(F)(F)F)cc4)c4cncn34)C2)c1 [Compound I-165, 7-(3-cyanobenzyl)-4-(4-trifluoromethylbenzyl)-6,7,8,9-tetrahydroimidazo[1,5-a]pyrido[3,4-e]pyrimidine-5(4H)-one]	1000 to 10000 nM	1000 to 10000 nM	
O=c1c2c(n3cncc3n1Cc1ccc(Cl)cc1)CCN(Cc1cccc(Cl)c1)C2 [Compound I-166, 7-(3-chlorobenzyl)-4-(4-chlorobenzyl)-6,7,8,9-tetrahydroimidazo[1,5-a]pyrido[3,4-e]pyrimidine-5(4H)-one]	1000 to 10000 nM	1000 to 10000 nM	
N#Cc1cccc(CN2CCc3c(c(=O)n(Cc4ccc(Cl)cc4)c4cncn34)C2)c1 [Compound I-167, 7-(3-cyanobenzyl)-4-(4-chlorobenzyl)-6,7,8,9-tetrahydroimidazo[1,5-a]pyrido[3,4-e]pyrimidine-5(4H)-one]	1000 to 10000 nM	1000 to 10000 nM	
O=c1c2c(n3cccc3n1Cc1ccc(C(F)(F)F)cc1)CCN(Cc1ccccc1)C2 [Compound I-168, 3-benzyl-6-(4-trifluoromethylbenzyl)-1,2,3,4-tetrahydropyrido[3,4-e]pyrrolo[1,2-a]pyrimidine-5(6H)-one]	< 1000 nM	< 1000 nM	
O=c1c2c(n3cccc3n1Cc1ccc(Cl)cc1)CCN(Cc1cccc(Cl)c1)C2 [Compound I-169, 3-(3-chlorobenzyl)-6-(4-chlorobenzyl)-1,2,3,4-tetrahydropyrido[3,4-e]pyrrolo[1,2-a]pyrimidine-5(6H)-one]	< 1000 nM	< 1000 nM	
Cc1ccccc1CN1C(=O)C2=C(CCN(Cc3ccccc3)C2)N2CCN=C12 [ONC201, reference compound]		100 to 10000 nM	cause tumor regression

Reference: patent publication US20240327408A1, “COMPOUNDS CONTAINING TETRAHYDRONAPHTHYRIDINONE OR TETRAHYDROPYRIDOPYRIMIDINONE SKELETON, PREPARATION METHOD THEREFOR AND PHARMACEUTICAL USE THEREOF” (CHINA PHARMACEUTICAL UNIVERSITY, priority 2021, published 2024)
